Calls of active or inactive are those of the source. The rule behind the calls is not given here.
What was measured:
[1] = Binding affinity to Pseudomonas aeruginosa LecB by ITC method
Pseudomonas aeruginosa [2] = assay: Induction of bacterial aggregation in Pseudomonas aeruginosa PAO1 assessed as number of aggregates per 100 uL of PBS cell solution at 100 uM by optical microscopy; type: functional
Pseudomonas aeruginosa [3] = assay: Induction of bacterial aggregation in Pseudomonas aeruginosa PAO1 expressing deltalecB mutant assessed as number of aggregates per 100 uL of PBS cell solution at 100 uM by optical microscopy; type: functional
Pseudomonas aeruginosa [4] = assay: Inhibition of biofilm formation of Pseudomonas aeruginosa PAO1 expressing deltalecA mutant at 5 mM after 24 hrs by crystal violet staining; type: functional, organism-based
Pseudomonas aeruginosa [5] = assay: Inhibition of biofilm formation of Pseudomonas aeruginosa PAO1 expressing deltalecB mutant at 5 mM after 24 hrs by crystal violet staining; type: functional, organism-based
Pseudomonas aeruginosa [6] = assay: Induction of bacterial aggregation in Pseudomonas aeruginosa PAO1 at 6 to 5000 uM by optical microscopy; type: functional, organism-based
Pseudomonas aeruginosa [7] = assay: Induction of bacterial aggregation in Pseudomonas aeruginosa PAO1 expressing deltalecA mutant at 6 to 5000 uM by optical microscopy; type: functional, organism-based
Pseudomonas aeruginosa [8] = assay: Induction of bacterial aggregation in Pseudomonas aeruginosa PAO1 expressing deltalecB mutant at 6 to 5000 uM by optical microscopy; type: functional, organism-based
Pseudomonas aeruginosa [9] = assay: Induction of bacterial aggregation in Pseudomonas aeruginosa PAO1 expressing deltalecA mutant assessed as number of aggregates per 100 uL of PBS cell solution at 100 uM by optical microscopy; type: functional, organism-based
Pseudomonas aeruginosa [10] = assay: Inhibition of Pseudomonas aeruginosa PAO1 adhesion to human A549 cells 25 to 2500 uM; type: functional
Pseudomonas aeruginosa [11] = assay: Inhibition of deltalecA mutant expressing Pseudomonas aeruginosa PAO1 adhesion to human A549 cells <250 uM; type: functional, organism-based
Pseudomonas aeruginosa [12] = assay: Inhibition of biofilm formation of Pseudomonas aeruginosa PAO1 at 0.1 to 5 mM after 24 hrs by crystal violet staining; type: functional, organism-based
Pseudomonas aeruginosa [13] = assay: Antimicrobial activity Pseudomonas aeruginosa PAO1 infected C57BL6/J mouse lung injury model assessed as effect on alveolar-capillary permeability using 5 mM compound pre-treated bacteria for infection; type: functional, organism-based
Pseudomonas aeruginosa [14] = assay: Antimicrobial activity Pseudomonas aeruginosa PAO1 infected C57BL6/J mouse lung injury model assessed as effect on alveolar-capillary permeability using 1 mM compound pre-treated bacteria for infection; type: functional, organism-based
Pseudomonas aeruginosa [15] = assay: Induction of filamentous-like and spherical bacterial aggregation in Pseudomonas aeruginosa PAO1 at 6 to 6600 uM by optical microscopy; type: functional, organism-based
Pseudomonas aeruginosa [16] = assay: Induction of filamentous-like and spherical bacterial aggregation in Pseudomonas aeruginosa PAO1 expressing deltalecB mutant at 6 to 6600 uM by optical microscopy; type: functional, organism-based
Pseudomonas aeruginosa [17] = assay: Inhibition of deltalecA mutant expressing Pseudomonas aeruginosa PAO1 adhesion to human A549 cells 25 to 2500 uM; type: functional, organism-based
Pseudomonas aeruginosa [18] = assay: Inhibition of deltalecB mutant expressing Pseudomonas aeruginosa PAO1 adhesion to human A549 cells 25 to 2500 uM; type: functional, organism-based
Pseudomonas aeruginosa [19] = assay: Inhibition of Pseudomonas aeruginosa PAO1 localization at human A549 cell membranes at 250 to 2500 uM by confocal microscopy; type: functional, organism-based
Pseudomonas aeruginosa [20] = assay: Inhibition of biofilm formation of Pseudomonas aeruginosa PAO1 at 0.1 mM after 24 hrs by crystal violet staining; type: functional, organism-based
Pseudomonas aeruginosa [21] = assay: Inhibition of biofilm formation of Pseudomonas aeruginosa PAO1 at 5 mM after 24 hrs by crystal violet staining; type: functional, organism-based
Pseudomonas aeruginosa [22] = assay: Effect on growth of Pseudomonas aeruginosa PAO1 at 0.1 to 5 mM after 24 hrs; type: organism-based; conditions: 5000 µM
Pseudomonas aeruginosa [23] = assay: Antimicrobial activity Pseudomonas aeruginosa PAO1 infected C57BL6/J mouse lung injury model assessed as reduction in alveolar-capillary permeability using 5 mM compound pre-treated bacteria for infection; type: functional
Pseudomonas aeruginosa [24] = assay: Antimicrobial activity Pseudomonas aeruginosa PAO1 infected C57BL6/J mouse lung injury model assessed as reduction in alveolar-capillary permeability using 1 mM compound pre-treated bacteria for infection; type: functional
Pseudomonas aeruginosa [25] = assay: Antimicrobial activity Pseudomonas aeruginosa PAO1 infected C57BL6/J mouse lung injury model assessed as protection against lung infection using 1 to 5 mM compound pre-treated bacteria for infection; type: functional, organism-based
[26] = biological target: T1, PA-I galactophilic lectin (Pseudomonas aeruginosa (strain ATCC 15692 / PAO1 / 1C / PRS 101 / LMG12228), UniProt Q05097); assay: Binding affinity to Pseudomonas aeruginosa LecA by ITC method
T1 sequence (Q05097 whole entry): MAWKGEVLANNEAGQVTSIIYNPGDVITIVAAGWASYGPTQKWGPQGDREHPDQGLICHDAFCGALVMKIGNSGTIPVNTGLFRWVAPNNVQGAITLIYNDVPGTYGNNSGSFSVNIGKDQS

Pseudomonas aeruginosa [27] = assay: Induction of filamentous-like and spherical bacterial aggregation in Pseudomonas aeruginosa PAO1 expressing deltalecA mutant at 6 to 6600 uM by optical microscopy; type: functional, organism-based
Pseudomonas aeruginosa [28] = assay: Inhibition of deltalecA mutant expressing Pseudomonas aeruginosa PAO1 adhesion to human A549 cells 250 to 2500 uM; type: functional, organism-based
Pseudomonas aeruginosa [29] = assay: Binding affinity to Pseudomonas aeruginosa LecB at 1.5 mM by ITC method
[30] = biological target: T2, PA-I galactophilic lectin (Pseudomonas aeruginosa (strain ATCC 15692 / PAO1 / 1C / PRS 101 / LMG12228)) (UniProt Q05097); assay: Binding affinity to Pseudomonas aeruginosa LecA at 1.5 mM by ITC method
T2 sequence (whole entry): T1 sequence (Q05097 whole entry)

Row | SMILES | Kd [1] [nM] | Activity (Pseudomonas aeruginosa [2]) | Activity (Pseudomonas aeruginosa [3]) | inhibition (Pseudomonas aeruginosa [4]) | inhibition (Pseudomonas aeruginosa [5]) | Activity (Pseudomonas aeruginosa [6]) | Activity (Pseudomonas aeruginosa [7]) | Activity (Pseudomonas aeruginosa [8]) | Activity (Pseudomonas aeruginosa [9]) | inhibition (INH) (Pseudomonas aeruginosa [10]) [%] | inhibition (Pseudomonas aeruginosa [12]) | other results
1 | CC(C)(C)c1cc2c(OCc3cn(CCOCCOCCO[C@H]4O[C@H](CO)[C@@H](O)[C@H](O)[C@@H]4O)nn3)c(c1)Cc1cc(C(C)(C)C)cc(c1OCc1cn(CCOCCOCCO[C@H]3O[C@H](CO)[C@@H](O)[C@H](O)[C@@H]3O)nn1)Cc1cc(C(C)(C)C)cc(c1OCc1cn(CCOCCOCCO[C@H]3O[C@H](CO)[C@@H](O)[C@H](O)[C@@H]3O)nn1)Cc1cc(C(C)(C)C)cc(c1OCc1cn(CCOCCOCCO[C@H]3O[C@H](CO)[C@@H](O)[C@H](O)[C@@H]3O)nn1)C2 | 2270 | 70 | 11 | inactive | inactive |  |  |  |  |  |  | 
2 | CO[C@@H]1O[C@H](CO)[C@H](O)[C@H](O)[C@H]1O |  | inactive | inactive |  |  | inactive | inactive | inactive | inactive | 30 | inactive | inhibition (Pseudomonas aeruginosa [11]): inactive; Activity (Pseudomonas aeruginosa [13]): inactive; Activity (Pseudomonas aeruginosa [14]): inactive
3 | C[C@@H]1O[C@@H](OCCOCCOCCn2cc(COc3c4cc(C(C)(C)C)cc3Cc3cc(C(C)(C)C)cc(c3OCc3cn(CCOCCOCCO[C@@H]5O[C@@H](C)[C@@H](O)[C@@H](O)[C@@H]5O)nn3)Cc3cc(C(C)(C)C)cc(c3OCc3cn(CCOCCOCCO[C@@H]5O[C@@H](C)[C@@H](O)[C@@H](O)[C@@H]5O)nn3)Cc3cc(C(C)(C)C)cc(c3OCc3cn(CCOCCOCCO[C@@H]5O[C@@H](C)[C@@H](O)[C@@H](O)[C@@H]5O)nn3)C4)nn2)[C@@H](O)[C@H](O)[C@@H]1O | 48 |  | 50 | Active | Active |  |  |  |  | 90 |  | Activity (Pseudomonas aeruginosa [15]): Active; Activity (Pseudomonas aeruginosa [16]): Active; inhibition (Pseudomonas aeruginosa [17]): Active; inhibition (Pseudomonas aeruginosa [18]): inactive; inhibition (Pseudomonas aeruginosa [19]): Active; inhibition (Pseudomonas aeruginosa [20]): inactive; inhibition (Pseudomonas aeruginosa [21]): Active; Activity (Pseudomonas aeruginosa [22]): Non-toxic; inhibition (INH) (Pseudomonas aeruginosa [23]): 50%; inhibition (INH) (Pseudomonas aeruginosa [24]): 50%; Activity (Pseudomonas aeruginosa [25]): inactive
4 | CO[C@H]1O[C@H](CO)[C@H](O)[C@H](O)[C@H]1O |  | inactive | inactive |  |  | inactive | inactive | inactive | inactive |  |  | 
5 | C[C@@H]1O[C@@H](OCCOCCOCCn2cc(CO)nn2)[C@@H](O)[C@H](O)[C@@H]1O | 304 |  |  |  |  |  |  |  |  |  |  | 
6 | CO[C@@H]1O[C@@H](C)[C@@H](O)[C@@H](O)[C@@H]1O |  |  |  |  |  | inactive | inactive | inactive |  | 65 | inactive | inhibition (Pseudomonas aeruginosa [17]): Active; inhibition (Pseudomonas aeruginosa [18]): inactive; Activity (Pseudomonas aeruginosa [13]): inactive; Activity (Pseudomonas aeruginosa [14]): inactive
7 | C[C@H]1O[C@@H](OCCOCCOCCn2cc(COc3c4cc(C(C)(C)C)cc3Cc3cc(C(C)(C)C)cc(c3OCc3cn(CCOCCOCCO[C@@H]5O[C@H](CO)[C@H](O)[C@H](O)[C@H]5O)nn3)Cc3cc(C(C)(C)C)cc(c3OCc3cn(CCOCCOCCO[C@@H]5O[C@H](CO)[C@H](O)[C@H](O)[C@H]5O)nn3)Cc3cc(C(C)(C)C)cc(c3OCc3cn(CCOCCOCCO[C@@H]5O[C@H](CO)[C@H](O)[C@H](O)[C@H]5O)nn3)C4)nn2)[C@H](O)[C@@H](O)[C@H]1O |  |  |  | Active | Active |  |  |  | inactive | 70 |  | Kd [26]: 176 nM; Activity (Pseudomonas aeruginosa [15]): Active; Activity (Pseudomonas aeruginosa [27]): inactive; inhibition (Pseudomonas aeruginosa [11]): inactive; inhibition (Pseudomonas aeruginosa [28]): Active; inhibition (Pseudomonas aeruginosa [19]): Active; inhibition (Pseudomonas aeruginosa [20]): inactive; inhibition (Pseudomonas aeruginosa [21]): Active; Activity (Pseudomonas aeruginosa [22]): Non-toxic; inhibition (INH) (Pseudomonas aeruginosa [23]): 50%; inhibition (INH) (Pseudomonas aeruginosa [24]): 50%; Activity (Pseudomonas aeruginosa [25]): inactive
8 | CO[C@H]1O[C@H](CO)[C@@H](O)[C@H](O)[C@@H]1O |  | inactive | inactive |  |  |  |  |  | inactive |  |  | 
9 | OCc1cn(CCOCCOCCO[C@@H]2O[C@H](CO)[C@H](O)[C@H](O)[C@H]2O)nn1 |  |  |  |  |  |  |  |  |  |  |  | Kd [26]: 150000 nM
10 | CC(C)(C)c1cc2c(OCc3cn(CCOCCOCCO[C@@H]4O[C@H](CO)[C@@H](O)[C@H](O)[C@H]4O)nn3)c(c1)Cc1cc(C(C)(C)C)cc(c1OCc1cn(CCOCCOCCO[C@@H]3O[C@H](CO)[C@@H](O)[C@H](O)[C@H]3O)nn1)Cc1cc(C(C)(C)C)cc(c1OCc1cn(CCOCCOCCO[C@@H]3O[C@H](CO)[C@@H](O)[C@H](O)[C@H]3O)nn1)Cc1cc(C(C)(C)C)cc(c1OCc1cn(CCOCCOCCO[C@@H]3O[C@H](CO)[C@@H](O)[C@H](O)[C@H]3O)nn1)C2 |  | inactive | inactive | inactive | inactive |  |  |  | inactive |  | inactive | Activity (Pseudomonas aeruginosa [29]): inactive; Activity [30]: inactive
